Publication PMC7855930, “Nontoxic Cobalt(III) Schiff Base Complexes with Broad‐Spectrum Antifungal Activity” (Chemistry (Weinheim an Der Bergstrasse, Germany), 2020)

Tests used:
C. albicans ATCC 90028 = assay: Antifungal MIC assay (broth microdilution in YNB); format: cell-based, Candida albicans
Text: (§1) Yeast strains: Candida albicans (ATCC 90028, NCCLS 11), Cryptococcus neoformans (ATCC 208821, H99 type strain), Candida tropicalis (ATCC 750, type strain), Candida glabrata (ATCC 90030, NCCLS 84) and Cryptococcus deuterogattii (ATCC 32609, type strain) were obtained from the American Type Culture Collection (ATCC). Cryptococcus deuterogattii (CBS 7750), Candida auris (CBS 10913) and Candida auris (CBS 12373) were obtained from the CBS‐KNAW culture collection. The strains were maintained on glycerol/YPD (yeast extract‐peptone dextrose) broth (20:80 v/v) at −80 °C.
(§2) Antifungal minimum inhibitory concentration (MIC) assay: The cobalt complexes and antifungal control compounds were serially diluted in 50 μL of Yeast Nitrogen Broth (YNB; BD, Cat No. 233520 supplemented with 2 % glucose and 10 mM ammonium sulfate) two‐fold across the wells of non‐binding surface (NBS) 96‐well plates (Corning; Cat. No. 3641). Plates were set up in quadruplicate for each strain tested, and two biological replicates were conducted on separate assay days.
(§3) Yeast strains were cultured from glycerol onto YPD (Becton Dickinson 242720) agar at 30 °C for 72 h. For each strain, a minimum of five single colonies were taken from the agar plate and dissolved in sterile water and adjusted to form a yeast suspension of 1×10^6 to 5×10^6 CFU mL^−1 (as determined by OD530). The suspension was subsequently diluted into YNB media, and added to each well of the compound containing plates, giving a final cell density of 2.5×10^3 CFU mL^−1 and a total volume of 100 μL. Plates were covered and incubated at 35 °C for 36 h without shaking.
(§4) Growth inhibition of all strains was determined visually where the MIC was recorded as the lowest compound concentration with no visible growth. Fluconazole (Sigma F8929), ketoconazole (Sigma K1003) and micafungin (Sigma SML2288) were used as internal positive inhibitor controls for every strain tested.

human red blood cells = assay: Haemolysis assay; format: cell-based; settings: 1 h at 37 °C
Method: Haemolysis assay: Human whole blood (Australian Red Cross Blood Service) was washed three times with three volumes of 0.9 % NaCl and resuspended in a concentration of 0.5×10^8 cells mL^−1, determined by manual cell count in a Neubauer haemocytometer. Washed cells were added to compound containing plates (384‐well round bottom polypropylene plates, Corning 3657) for a final volume of 50 μL, shaken for 10 min and incubated for 1 h at 37 °C, without shaking. After incubation, the plates were centrifuged at 1000 g for 10 min to pellet cells and debris, 25 μL of the supernatant was then transferred to reading plates (384‐well flat bottom polystyrene plates, Corning CLS3680), with haemolysis determined by measuring the supernatant absorbance at […] (OD405), using cells without inhibitors as negative control and cells with 1 % Triton X‐100 (Sigma T8787) as positive control. HC10 and HC50 (concentration at which 10 and 50 % haemolysis is induced, respectively) were calculated by curve fitting the inhibition values vs. log(concentration) of four replicates using a sigmoidal dose–response function with variable fitting values for top, bottom and slope using Prism 8. Melittin (Sigma M2272) was used as positive haemolytic control on each plate. Human ethics approval from the University of Queensland Institutional Human Research Ethics Committee was obtained for use of human blood for haemolysis studies (approval number 201400003).

[1] = test system: Klebsiella pneumoniae ATCC 700603 (K6; ESBL SHV-18); format: cell-based; settings: 18 h
Method: (§5) CO-ADD High Throughput Screening
(§6) Bacterial broth microdilution minimum inhibitory concentration (MIC) assay Bacterial strains were cultured in Cation-adjusted Mueller Hinton broth (CAMHB; Bacto Laboratories 212322) at 37 °C overnight. A sample of each culture was then diluted 40-fold in fresh CAMHB and incubated at 37 °C for 1.5-3 h. The resultant mid-log phase cultures were diluted with CAMHB (CFU/mL measured by OD600), then added to each well of the compound-containing plates (384-well non-binding surface (NBS) plates; Corning CLS3640), giving a cell density of 5 × 10^5 CFU/mL and a total volume of 50 µL. Plates were covered and incubated at 37 °C for 18 h without shaking. Inhibition of bacterial growth was determined measuring absorbance at 600 nm (OD600), using media only as negative control and bacteria without inhibitors as positive control. MIC values were determined as the lowest concentration at which the growth was inhibited at ≥ 80%. Colistin sulfate (Sigma C4461) and vancomycin HCl (Sigma 861987) were used as positive inhibitor controls on each plate for Gram-negative and Gram-positive bacteria, respectively.
(§7) Figure S1. 1H NMR (400 MHz) of [Co(ATS)(DMAP)2]NO3 (3) in DMSO-d6.
(§8) (1 picture or pasted object on this page, not shown here)

C. tropicalis ATCC 750 = assay: Antifungal MIC assay (broth microdilution in YNB); format: cell-based, Candida tropicalis
Text: as §1, §2, §3, §4

[2] = test system: Escherichia coli ATCC 25922; assay: CO-ADD bacterial broth microdilution MIC assay; format: cell-based; settings: CAMHB, 37 °C, 18 h, ≥ 80% inhibition
Method: as §5, §6, §7, §8

[3] = test system: Staphylococcus aureus ATCC 43300 (MRSA); assay: CO-ADD bacterial broth microdilution MIC assay; format: cell-based
Method: as §5, §6, §7, §8

[4] = test system: Pseudomonas aeruginosa ATCC 27853; assay: CO-ADD bacterial broth microdilution MIC assay; format: cell-based; settings: CAMHB, 37 °C, 18 h, ≥ 80% inhibition
Method: as §5, §6, §7, §8

[5] = test system: Acinetobacter baumannii ATCC 19606; assay: CO-ADD bacterial broth microdilution MIC assay; format: cell-based; settings: CAMHB, 37 °C, 18 h, ≥ 80% inhibition
Method: as §5, §6, §7, §8

[6] = test system: C. deuterogattii CBS 7750; assay: Antifungal MIC assay (broth microdilution in YNB); format: cell-based, Cryptococcus deuterogattii
Text: as §1, §2, §3, §4

[7] = test system: C. deuterogattii ATCC 32609; assay: Antifungal MIC assay (broth microdilution in YNB); format: cell-based, Cryptococcus deuterogattii
Text: as §1, §2, §3, §4

**Q.** Which results are given for “[Co(3F‐salophen)(3F‐BnNH2)2]NO3 [Compound 6]”?
**A.** MIC Candida albicans ATCC 90028 (C. albicans ATCC 90028; Table S1): 69.4 µg/mL; MIC (C. albicans ATCC 90028; range of MICs, n=8, 35 °C, 36 h, visual, read-out: MIC C. albicans ATCC 90028): 100 µM; Haem HC10 (concentration at which 10 % haemolysis is reached) (human red blood cells): >100 µM; MIC Kp (Klebsiella pneumoniae ATCC 700603) [1]: > 32 µg/mL; MIC Candida tropicalis ATCC 750 (C. tropicalis ATCC 750; Table S1): > 69.4 µg/mL; MIC (C. tropicalis ATCC 750; range of MICs, n=8, 35 °C, 36 h, visual, read-out: MIC C. tropicalis ATCC 750): >100 µM; MIC Ec (Escherichia coli ATCC 25922) [2]: > 32 µg/mL; MIC Sa (Staphylococcus aureus ATCC 43300, MRSA) ([3]; CAMHB, 37 °C, 18 h, ≥ 80% inhibition): 8 µg/mL; MIC methicillin‐resistant S. aureus (MRSA) ([3]; value in μM given in brackets in the text): 11.5 µM; MIC Pa (Pseudomonas aeruginosa ATCC 27853) [4]: > 32 µg/mL; MIC Ab (Acinetobacter baumannii ATCC 19606) [5]: > 32 µg/mL; MIC Cryptococcus deuterogattii CBS 7750 ([6]; Table S1): > 69.4 µg/mL; MIC ([6]; range of MICs, n=8, 35 °C, 36 h, visual, read-out: MIC C. deuterogattii CBS 7750): >100 µM; MIC Cryptococcus deuterogattii ATCC 32609 ([7]; Table S1): 69.4 µg/mL; MIC ([7]; range of MICs, n=8, 35 °C, 36 h, visual, read-out: MIC C. deuterogattii ATCC 32609): 100 µM
